According to US20260062426A1, “CYCLIN DEPENDENT KINASE DEGRADERS AND METHODS OF USE THEREOF” (Differentiated Therapeutics Inc, priority 2023, published 2026):

Tests used:
Format in all cases: cell-based
[1] = biological target: T1, CDK9 (Homo sapiens, UniProt P50750); assay: CDK9 HIBIT PQ (protein quantification), degradation; settings: for Dmax: Max = Maximum; for DC50: PQ = Protein Quantification
T1 construct: host or cells: HEK293
Summary of the method: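 In 384-well plates, HEK293 cells with HiBiT-tagged CDK9, grown in DMEM with 10% FBS, were seeded at 1.6×10^5 cells/well in 50 uL and kept overnight at 37° C and 5% CO2. After compound treatment, a HiBiT assay quantified CDK9 protein against a high control of 0.1% DMSO-treated cells and a low control of culture medium only. Maximal degradation, Dmax and DC50 were derived from the resulting signal.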

[2] = biological target: T2, CCNE1 (Homo sapiens, UniProt P24864+P24941); assay: CCNE1 HIBIT PQ (protein quantification), degradation; settings: for CCNE1 HIBIT PQ Max (%): Max = Maximum; for DC50: PQ = Protein Quantification
T2 construct: host or cells: HEK293
Summary of the method: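 For DC50 and maximal degradation, CCNE1 protein was quantified with a HiBiT assay in HEK293 cells carrying HiBiT-tagged CCNE1. Cells in EMEM with 10% FBS went into 384-well plates at 1.6×10⁵ cells/well in 50 uL, stayed overnight at 37° C and 5% CO₂, and then received compound for 6 hours. Readings were referenced to 0.1% DMSO-treated cells as the high control and culture medium only as the low control.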

[3] = biological target: T3, CDK2 (Homo sapiens, UniProt P24941); assay: CDK2 HIBIT PQ (protein quantification), degradation; settings: for CDK2 HIBIT PQ Max (%): Max = Maximum; for DC50: PQ = Protein Quantification
T3 construct: host or cells: HEK293
Summary of the method: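 HEK293 cells carrying HiBiT-tagged CDK2 were grown in DMEM with 10% FBS and seeded in 384-well plates at 1.6×10^5 cells/well in 50 uL, then incubated overnight at 37° C and 5% CO2. After 6 hours of compound treatment, 20 μL of HiBiT reagent (Nano-Glo HiBiT lytic buffer, lytic substrate, LgBiT protein) was added and plates were shaken for 20 minutes at room temperature before an EnVision reading. High control was 0.1% DMSO and low control was medium only. Maximal degradation and DC50 were derived from these readings.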

T1 sequence (P50750 whole entry): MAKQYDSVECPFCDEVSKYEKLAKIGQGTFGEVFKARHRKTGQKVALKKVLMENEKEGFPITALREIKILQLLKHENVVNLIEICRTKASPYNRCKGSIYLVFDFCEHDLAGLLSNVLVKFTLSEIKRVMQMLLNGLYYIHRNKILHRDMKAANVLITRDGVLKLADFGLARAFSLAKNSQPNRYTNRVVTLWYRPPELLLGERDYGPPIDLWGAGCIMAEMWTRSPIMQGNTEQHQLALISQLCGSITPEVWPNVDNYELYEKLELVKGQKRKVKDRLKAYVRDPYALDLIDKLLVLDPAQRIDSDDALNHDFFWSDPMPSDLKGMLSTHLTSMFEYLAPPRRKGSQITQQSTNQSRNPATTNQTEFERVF

Structure (SMILES) | Dmax [1] | CCNE1 HIBIT PQ Max (%) [2] | CDK2 HIBIT PQ Max (%) [3] | DC50 [3] | DC50 [1] | DC50 [2]
CC(C)Oc1c(-c2cn[nH]c2)ncn2nc(Nc3ccc(S(=O)(=O)c4cccc(C(C)N5CCN(c6ccc7c(N8CCC(=O)NC8=O)nn(C)c7c6)C6CC65)c4)cc3F)nc12 (stereo not shown) [Compound 83] | 23% | 28% | 89% | 7.6 nM |  | 
CC(C)Oc1c(-c2cn[nH]c2)ncn2nc(Nc3ccc(S(=O)(=O)N4CCCC(CN5CCN(c6ccc7c(N8CCC(=O)NC8=O)nn(C)c7c6)C6CC65)C4)cc3F)nc12 (stereo not shown) [Compound 88] | 18% | 25% | 61% | 6.5 nM |  | 
CC(C)Oc1c(-c2cn[nH]c2)ncn2nc(Nc3ccc(S(=O)(=O)c4cccc(C[C@H]5C[C@H](c6ccc7c(N8CCC(=O)NC8=O)nn(C)c7c6)C5)c4)cc3F)nc12 [Compound 89, rel-1-(6-((1s,3r)-3-(3-((3-fluoro-4-((8-isopropoxy-7-(1H-pyrazol-4-yl)-[1,2,4]triazolo[1,5-c]pyrimidin-2-yl)amino)phenyl)sulfonyl)benzyl)cyclobutyl)-1-methyl-1H-indazol-3-yl)dihydropyrimidine-2,4(1H,3H)-dione] | 17% | 38% | 70% | 43.4 nM |  | 
CC(C)Oc1c(-c2cn[nH]c2)ncn2nc(Nc3ccc(S(=O)(=O)c4cccc(C[C@H]5C[C@@H](c6ccc7c(N8CCC(=O)NC8=O)nn(C)c7c6)C5)c4)cc3F)nc12 [Compound 90, rel-1-(6-((1r,3s)-3-(3-((3-fluoro-4-((8-isopropoxy-7-(1H-pyrazol-4-yl)-[1,2,4]triazolo[1,5-c]pyrimidin-2-yl)amino)phenyl)sulfonyl)benzyl)cyclobutyl)-1-methyl-1H-indazol-3-yl)dihydropyrimidine-2,4(1H,3H)-dione] | 14% | 48% | 91% | 14.3 nM |  | 

Other lines, results leading:

Dmax [1] | CCNE1 HIBIT PQ Max (%) [2] | CDK2 HIBIT PQ Max (%) [3] | DC50 [3] | DC50 [1] | DC50 [2] | Structure (SMILES)
67% | 71% | 84% | 3.2 nM | 61.5 nM | 12.5 nM | CC(C)Oc1c(-c2cn[nH]c2)ncn2nc(Nc3ccc(S(=O)(=O)N4CCCC(CN5CCN(c6ccc7c(N8CCC(=O)NC8=O)nn(C)c7c6)C(C)C5)C4)cc3F)nc12 (stereo not shown) [Compound 91]
77% | 82% | 88% | 1.7 nM | 21.7 nM | 4.11 nM | CC(C)Oc1c(-c2cn[nH]c2)ncn2nc(Nc3ccc(S(=O)(=O)N4CCCC(CN5CCC(c6ccc7c(N8CCC(=O)NC8=O)nn(C)c7c6)C(C)C5)C4)cc3F)nc12 (stereo not shown) [Compound 92]
56% | 56% | 77% | 0.7 nM | 5.87 nM | 1.22 nM | CC(C)Oc1c(-c2cn[nH]c2)ncn2nc(Nc3ccc(S(=O)(=O)N4CCCC(CN5CCC(c6ccc7c(N8CCC(=O)NC8=O)nn(C)c7c6)CC5(C)C)C4)cc3F)nc12 (stereo not shown) [Compound 93, 1-(6-(1-((1-((3-fluoro-4-((8-isopropoxy-7-(1H-pyrazol-4-yl)-[1,2,4]triazolo[1,5-c]pyrimidin-2-yl)amino)phenyl)sulfonyl)piperidin-3-yl)methyl)-2,2-dimethylpiperidin-4-yl)-1-methyl-1H-indazol-3-yl)dihydropyrimidine-2,4(1H,3H)-dione]
